Assay results as given in patent publication US20260240792A1, “COMPOSITIONS FOR TREATING 5-HT2 CONDITIONS AND METHODS OF USING THE SAME” (Board of Supervisors of Louisiana State University and …, priority 2022, published 2026).
“And” between values parts separate entries of the source, which are not always exact repeats. Equal values may be shown once. “Also recorded” adds a separate entry of the source.

Legend:
rabbits [1] = assay: Intraocular pressure (IOP) after topical ocular dosing in rabbits; assay type: in vivo, rabbit; settings: for Ave OS 2 hpt IOP: left eye; for Ave OS 2 hpt IOP / Avg OD 2 hpt IOP: 2 hours after dosing
Protocol: The IOP was assessed as a component of clinical outcomes for the animals in the studies described herein. The table below represents the effect of R-DOI on IOP 2 hours after dosing with the indicated concentration of R-DOI. Eyes were individually assessed and are indicated as IOP for the right (OD) or left (OS) eye.
Each eye of each rabbit was then assessed for initial IOP by tonometer.
IOP determinations were made at 30 minutes, 1 hour, 1.5 hours and 2.5 hours-eyes were examined closely for any adverse effects during these IOP measures.
3 days post treatment at the same time initial measures were made, IOP and tear film production were re-assessed to examine if effects were sustained post 1 treatment.
The IOP was assessed via a TonoVet rebound Tonometer. The tables herein (see, for example, FIG. 4) represent the effect of Compound 1 on IOP at time intervals within the first 2.5 hours after dosing with 0.01% Compound 1 in BSS with 0.5% CMC. Eyes were individually assessed and are indicated as IOP for the right (OD) or left (OS) eye. 3 days post treatment eyes were reassessed for IOP changes to see if the effects of treatment lasted over a prolonged period.
(§1) • Rabbits were assessed for clinically clear eyes by slit lamp ophthalmic scoring. All eyes of all rabbits were normal. • Each eye of each rabbit was then assessed for initial IOP by tonometer. • Each eye of each rabbit was assessed for tear film production by Schirmer's Tear Flo Strips at a 30 second interval of analysis. Tear measures were evaluated by a digital caliper to determine mm of tears collected. • Rabbits were sorted into two groups attempting to balance IOP numbers (one higher, one lower animal per group). • Following animals were treated with 50 μL of Control ophthalmic BSS/0.5% CMC or 0.01% R-DOI HCl in ophthalmic BSS/0.5% CMC. • Any apparent behavioral changes were continuously monitored over the next 2.5 hours. • IOP determinations were made at 30 minutes, 1 hour, 2 hours and 3 hours, 5 hours, 7 hours and 24 hours-eyes were examined closely for any adverse effects during these IOP measures. • 7 hours post treatment when IOP returned to control levels tear film production was assessed (see, for example, FIG. 9).
The IOP was assessed via a TonoVet rebound Tonometer. The tables herein (see, for example, FIGS. 10-11) represents the effect of R-DOI on IOP at the defined time intervals Eyes were individually assessed and are indicated as IOP for the right (OD) or left (OS) eye.

[2] = Solubility in ophthalmic eye drop (BSS, 0.5% CMC); assay type: physicochemical; settings: 0.1% (5 mg/5 mL) in BSS with 0.5% CMC, pH 7.0
Protocol: Non-Limiting, Exemplary Findings Discussed within: • The NCE Compound 1 was formulated within an ophthalmic eye drop with BSS and 0.5% carboxymethylcellulose (CMC) at percentages of 0.1% (5 mg/5 ml) and lower with a pH of 7.0.
• The R-DOI HCl was formulated within an ophthalmic eye drop with BSS and 0.5% carboxymethylcellulose (CMC) at percentages of 0.1% (5 mg/5 mL) and lower with a pH of 7.0.

[3] = Weight changes across 1 week of dosing; assay type: in vivo, rabbit
rabbits [4] = assay: Topical ocular dosing in rabbits: observation of CNS, systemic, ocular and behavioral effects, ocular tolerability; assay type: in vivo, rabbit; settings: for adverse events on repeated dosing / threshold dose for inducing systemic effects and minimal undesirable events: 50 μl per eye; for adverse events on repeated dosing: 2 times on day 1 then 4 times per day for 3 days
Protocol: Apparent Ocular Irritability • b. Induction of Inflammation • c. Reduction of Corneal Barrier Integrity • d. Dry Eye or Excessive Tearing • e. Induction of Neovascularization • f. Induction of Scleral Reddening
Parameters Assessed during 2 hour Observation Window (see, for example, FIG. 1):
Two studies were performed to determine at what dose between 0.01% and 0.1% were behavioral and/or systemic effects observed. 50 μL doses at 0.01%, 0.05%, and 0.075% per eye applied and assessments were made as indicated herein.
The application of most topical eye drops requires repeatedly dosing up to 9 times per day in order to maintain efficacy across the course of waking hours and have efficacious levels available during sleeping hours. The effects of repeated ocular dosing of R-DOI were assessed in a similar manner as described herein, with the exception that doses of 0.01% or 0.05% were applied repeatedly as outlined herein:
Animals from the acute dosing were continued through the repeated dosing study. Animals were dosed at the indicated concentration 2 times on day 1 and then dosed 4 times per day for 3 subsequent days. Doses were administered at 50 μl per eye into both eyes of the animal.
Rabbits were assessed for clinically clear eyes by slit lamp ophthalmic scoring. All eyes of all rabbits were normal.
Following balancing animals were treated with 50 μL of Control ophthalmic BSS/0.5% CMC or 0.01% Compound 1 in ophthalmic BSS/0.5% CMC.
Any behavioral changes were continuously monitored over the next 2.5 hours (FIG. 3).
We can determine if a single dose of the ocular composition of 0.01% R-DOI with 0.5% carboxymethylcellulose in ophthalmic BSS: • 1. Reproduced previous findings that R-DOI had IOP depressing effects. • 2. Produced any readily observable behavioral effects. • 3. Was tolerated by the eye without adverse ocular effects, including absence of: • a. Apparent Ocular Irritability • b. Induction of Inflammation • c. Dry Eye or Excessive Tearing • d. Induction of Scleral Reddening • 4. Reduced IOP • 5. Maintained Reduction in IOP • 6. Increased Tear Film Production
as §1

[5] = 0.01% single dose, group E5/E6, 2 h
[6] = 0.1% single dose, group E3/E4, 2 h
[7] = 0.01% (1 dose/day day 1, 2 dose/day day 2, 4 dose/day days 3-5)
[8] = 0.1% day 1, then 0.05% (2 dose/day day 2, 4 dose/day days 3-5)
[9] = 0.075%, 50 μL per eye, both eyes, single dose
[10] = 0.075%, 50 μL per eye, both eyes, single dose, listed as R-DOI HCl
[11] = 0.1%, 50 μL per eye, both eyes, single dose
[12] = 0.1%, 50 μL per eye, both eyes, single dose, 2 hour observation
[13] = 0.1%, 50 μL per eye, both eyes, single dose, 2 hour observation, listed as R-DOI HCl

COc1cc(C[C@@H](C)N)c(OC)cc1I [R-DOI, (R)-1-(2,5-dimethoxy-4-iodophenyl)-2-aminopropane]
time post administration by which a significant decrease in IOP was shown (rabbits [1]; 0.01% single dose): ≤ 30 min | whether the decrease in intraocular pressure was sustained (rabbits [1]; 0.01% single dose, IOP followed to 24 hours): not sustained following 3 hours post treatment | Avg % change Group (rabbits [1]; [5]): −53.33% | Avg Delta Eye Group (rabbits [1]; [5]): −7.75 | Ave OS 2 hpt IOP (rabbits [1]; 0.01% single dose): 13.50 and 7.00 | Avg OD 2 hpt IOP (rabbits [1]; 0.01% single dose, right eye): 12.25 and 7.00 | % Change (OD) (rabbits [1]; 0.01% single dose, right eye, 2 h vs starting IOP): −56.67% and −50.00% | Avg % change Group (rabbits [1]; [6]): −30.77% | Avg Delta Eye Group (rabbits [1]; [6]): −4.94 | Ave OS 2 hpt IOP (rabbits [1]; 0.1% single dose): 13.25 and 9.00 | Avg OD 2 hpt IOP (rabbits [1]; 0.1% single dose, right eye): 11.50 and 13.25 | effect on intraocular pressure (rabbits [1]; single topical ocular dose): decreased IOP with the greatest reduction of IOP observed for the lower R-DOI dosages; also recorded: acutely decreased intraocular pressure with a single dose | Solubility of the compound [2]: good with no remaining precipitates | 1 week weight [3, 7]: 3.17 kg and 2.89 kg | 1 week weight change [3, 7]: 0.11 and 0.07 | weight with repeated dosing ([3]; 0.01% or 0.05% repeated dosing, 1 week): no loss of weight with repeated dosing | 1 week weight [3, 8]: 2.96 kg and 2.79 kg | 1 week weight change [3, 8]: 0.08 and 0.09 | ocular tolerability of ophthalmic drops (irritability, dry eye or tearing, corneal damage, inflammation, neovascularization) (rabbits [4]; 0.01% or 0.05%, repeated dosing, listed as R-DOI HCl): tolerated with no signs or symptoms of irritability; also recorded: Neither signs of dry eye nor excessive tear production was observed; also recorded: no damage to corneal surfaces, barrier intactness, inflammation, or neovascularization | adverse events (ocular, systemic, behavioral or otherwise) (rabbits [4]; 0.01%, 50 μL per eye, both eyes, single dose): No observable changes; also recorded: no apparent adverse events | adverse events (ocular, systemic, behavioral or otherwise) (rabbits [4]; 0.01%, 50 μL per eye, both eyes, single dose, listed as R-DOI HCl): no adverse or abnormal events observed | adverse events on repeated dosing (rabbits [4]; 0.01%, both eyes): did not cause any adverse events; also recorded: No observable changes | adverse events on repeated dosing (rabbits [4]; 0.01%, both eyes, listed as R-DOI HCl): no adverse or abnormal events observed | acute ocular toxicity, irritability or adverse ocular reactions (rabbits [4]; 0.01%, acute single dosing): did not exhibit any acute ocular toxicity, irritability, or adverse ocular reactions | adverse events (ocular, systemic, behavioral or otherwise) (rabbits [4]; 0.05%, 50 μL per eye, both eyes, single dose): No adverse events; also recorded: No observable changes | adverse events (ocular, systemic, behavioral or otherwise) (rabbits [4]; 0.05%, 50 μL per eye, both eyes, single dose, listed as R-DOI HCl): no adverse or abnormal events observed | adverse events on repeated dosing (rabbits [4]; 0.05%, both eyes): did not cause any adverse events; also recorded: No observable changes | adverse events on repeated dosing (rabbits [4]; 0.05%, both eyes, listed as R-DOI HCl): no adverse or abnormal events observed | adverse events (ocular, systemic, behavioral or otherwise) (rabbits [4]; [9]): No adverse events; also recorded: No CNS, Ocular Behavioral or Systemic Changes | pupil dilation/contraction (miosis) (rabbits [4]; [9]): Slight Miosis can be observed in E10 and E11 | adverse events (ocular, systemic, behavioral or otherwise) (rabbits [4]; [10]): no adverse CNS or systemic events observed | pupil dilation/contraction (miosis) (rabbits [4]; [10]): Slight but transient miosis was evident in 2 animals | time for miosis to resolve to normal after initial observation (rabbits [4]; 0.075%, single dose, 2 animals): ≤ 15 min | onset of symptoms (rabbits [4]; [11]): 20 min | time post treatment at which observed effects were cleared (rabbits [4]; [11]): cleared by one hour post administration and 1 hour to 2 hour post: Regained Responsiveness; Breathing Normal; Pupils Normal | CNS associated behavioral effects (rabbits [4]; [12]): only slight CNS associated behavioral effects were noted; also recorded: Lethargy; also recorded: Head twitch? | pupil dilation/contraction (miosis) (rabbits [4]; [12]): miosis or contraction of the pupil; also recorded: Miosis obvious (pupil contracted) | systemic effects (respiration and heart rate) (rabbits [4]; [12]): increased respiration and heart rate were noted; also recorded: Increased breathing and Heartrate | CNS associated behavioral effects (rabbits [4]; [13]): minimal to no head bobs/twitches observed | systemic effects (respiration and heart rate) (rabbits [4]; [13]): obvious increased respiration and heart rates | time post treatment at which observed effects were cleared (rabbits [4]; 0.1%, 50 μL per eye, both eyes, single dose, listed as R-DOI HCl): approximately 1 hour | threshold dose for inducing systemic effects and minimal undesirable events (rabbits [4]; both eyes): greater than 0.075% | threshold dose for inducing systemic effects and minimal undesirable events (rabbits [4]; both eyes, listed as R-DOI HCl): 0.1% | systemic and behavioral threshold concentration for delivery (rabbits [4]; delivered as a 50 μL drop of 0.1% ophthalmic solution to both eyes): ≥ 100 total micrograms per animal | acute ocular toxicity, irritability or adverse ocular reactions (rabbits [4]; topical eye drop, acute single dosing and repeated dosing trials): did not exhibit any acute ocular toxicity, irritability or adverse ocular reactions
